# Measurements from publication PMC12299285, “Isolation and Identification of Secondary Metabolites in Rheum tataricum L.fil. Growing in Kazakhstan and Surveying of Its Anticancer Potential” (Molecules, 2025).
# Like-named read-outs stand apart in the source and are kept apart here.
# Experiments:
# [1] = system: HeLa (HPV18-positive human cervical cancer cell line); assay: MTT cytotoxicity assay, HeLa cervical cancer cells; assay type: cell-based; conditions: 48 h incubation, three independent experiments, read-out: Growth Inhibition of Cells (GI50 ± SEM) HeLa (HPV-18)
# [2] = system: T98G glioblastoma cell line; assay: MTT cytotoxicity assay, T98G glioblastoma cells; assay type: cell-based, human; conditions: 48 h incubation, three independent experiments, read-out: Growth Inhibition of Cells (GI50 ± SEM) T98G
# [3] = system: MCF-7 breast adenocarcinoma cells; assay: MTT cytotoxicity assay, MCF-7 breast adenocarcinoma cells; assay type: cell-based, human; conditions: three independent experiments, read-out: Growth Inhibition of Cells (GI50 ± SEM) MCF-7
# [4] = system: SNB-19 glioblastoma cell line; assay: MTT cytotoxicity assay, SNB-19 glioblastoma cells; assay type: cell-based, human; conditions: three independent experiments, read-out: Growth Inhibition of Cells (GI50 ± SEM) SNB-19
# [5] = system: DU-145 prostate cancer cell line; assay: MTT cytotoxicity assay, DU-145 prostate cancer cells; assay type: cell-based, human; conditions: three independent experiments, read-out: Growth Inhibition of Cells (GI50 ± SEM) DU-145
# [6] = system: CaSki (HPV16-positive human cervical cancer cell line); assay: MTT cytotoxicity assay, CaSki cervical cancer cells; assay type: cell-based; conditions: 48 h incubation, three independent experiments, read-out: Growth Inhibition of Cells (GI50 ± SEM) CaSki (HPV-16)
# [7] = system: Normal epithelial VERO cells; assay: MTT cytotoxicity assay, normal epithelial VERO cells (non-cancer control); assay type: cell-based, African green monkey; conditions: 48 h incubation, three independent experiments, read-out: Growth Inhibition of Cells (GI50 ± SEM) VERO
# [8] = system: C33 A (HPV-negative human cervical cancer cell line); assay: MTT cytotoxicity assay, C33 A cervical cancer cells; assay type: cell-based; conditions: read-out: Growth Inhibition of Cells (GI50 ± SEM) C33 A (HPV-Negative)
# activated macrophages = system: activated macrophages; parameters: method as in PMID 9810263; conditions: in vivo; cited from earlier work
# [9] = parameters: method as in PMID 21725818; conditions: rats; cited from earlier work
# [10] = parameters: method as in PMID 21725818; conditions: mice; cited from earlier work
# [11] = Homo sapiens, MCF7, 48 h, 48 h incubation
# [12] = Homo sapiens, SNB-19, 48 h incubation
# [13] = Homo sapiens, DU-145, 48 h incubation
# [14] = Chlorocebus sabaeus, Vero, 48 h
# [15] = Homo sapiens, C-33-A, MTT, 48 h incubation, three independent experiments
compound,measurement,setting,value
"C[C@@H](O)CCc1ccc(O)cc1 [Compound 4, (R)-4-(4-Hydroxyphenyl)-2-butanol]",GI50,"[1]; Homo sapiens, HeLa",29 ± 0.7 µM
same,GI50,"[2]; Homo sapiens, T98G",18 ± 1.1 µM
same,GI50,[3]; [11],11 ± 1.4 µM
same,GI50,[4]; [12],15 ± 0.9 µM
same,GI50,[5]; [13],21 ± 0.8 µM
same,GI50,"[6]; Homo sapiens, Ca-Ski",10 ± 0.6 µM
same,GI50,[7],> 100 µM
same,GI50,[7]; [14],> 83 µM
same,GI50,[8]; [15],28 ± 0.5 µM
"C[C@H](O)CCc1ccc(O)cc1 [Compound 5, (S)-4-(4-Hydroxyphenyl)-2-butanol]",NO production by activated macrophages,activated macrophages,suppressed NO production
1-O-Galloyl-β-D-glucopyranose [Compound 6],GI50,[1],29 ± 2.4 µM
same,GI50,[2],21 ± 0.8 µM
same,GI50,[3]; 48 h incubation,31 ± 0.7 µM
same,GI50,[4]; 48 h incubation,26 ± 1.2 µM
same,GI50,[5]; 48 h incubation,67 ± 6.4 µM
same,GI50,[6],18 ± 1.4 µM
same,GI50,[7],> 100 µM
same,GI50,"[8]; MTT, 48 h incubation, three independent experiments",27 ± 2.6 µM
"OC[C@H]1O[C@@H](Oc2ccc(/C=C/c3cc(O)cc(O)c3)cc2)[C@H](O)[C@@H](O)[C@@H]1O [Compound 12, (E)-resveratrol 4′-O-β-D-glucopyranoside]",GI50,"[1]; Homo sapiens, HeLa",18 ± 1.6 µM
same,GI50,"[2]; Homo sapiens, T98G",21 ± 1.7 µM
same,GI50,[3]; 48 h incubation,7 ± 1.2 µM
same,GI50,[3]; [11],7 to 8 µM
same,GI50,[4]; [12],9.2 ± 0.8 µM
same,GI50,[7],98 ± 4.8 µM
same,GI50,[7]; [14],> 83 µM
"COc1ccc(C=Cc2cc(O)cc(OC3OC(CO)C(O)C(O)C3O)c2)cc1 [Compound 11, 3,5-Dihydroxy-4′-methoxystilbene-3-O-β-D-glucopyranoside]",GI50,"[1]; Homo sapiens, HeLa",17 ± 0.9 µM
same,GI50,"[2]; Homo sapiens, T98G",18 ± 3.5 µM
same,GI50,[3]; 48 h incubation,8 ± 1.8 µM
same,GI50,[3]; [11],7 to 8 µM
same,GI50,[4]; [12],13 ± 1.1 µM
same,GI50,[7],92 ± 7.9 µM
same,GI50,[7]; [14],> 83 µM
"C[C@@H](CCc1ccc(O)cc1)O[C@@H]1O[C@H](CO)[C@@H](O)[C@H](O)[C@H]1O [Compound 3, (S)-4-(4-Hydroxyphenyl)-2-butanol 2-β-D-glucopyranoside]",NO production by activated macrophages,activated macrophages,suppressed NO production
"COc1cccc2c1C(=O)c1c(O)c3c(c(O)c1C2=O)C[C@@](O)(C(=O)CO)C[C@@H]3O[C@H]1C[C@H](N)[C@H](O)[C@H](C)O1 [Doxorubicin, reference compound]",GI50,"[1]; Homo sapiens, HeLa",6.1 ± 0.7 µM
same,GI50,"[2]; Homo sapiens, T98G",13 ± 0.5 µM
same,GI50,"[3]; Homo sapiens, MCF7, 48 h incubation",5.2 ± 0.8 µM
same,GI50,[4]; [12],7.6 ± 0.7 µM
same,GI50,[5]; [13],15 ± 0.3 µM
same,GI50,"[6]; Homo sapiens, Ca-Ski",10.1 ± 0.7 µM
same,GI50,"[7]; Chlorocebus sabaeus, Vero",8 ± 1.8 µM
"CC(=O)CCc1ccc(O)cc1 [Compound 9, 4-(4-Hydroxyphenyl)butan-2-one]",GI50,"[1]; Homo sapiens, HeLa",23 ± 3.7 µM
same,GI50,"[2]; Homo sapiens, T98G",19 ± 0.9 µM
same,GI50,[3]; [11],21 ± 2.1 µM
same,GI50,[4]; [12],33 ± 1.8 µM
same,GI50,[5]; [13],60 ± 1.7 µM
same,GI50,"[6]; Homo sapiens, Ca-Ski",20 ± 1.5 µM
same,GI50,[7],> 100 µM
same,GI50,[7]; [14],> 83 µM
same,GI50,[8]; [15],19 ± 2.2 µM
"C[C@H](CCc1ccc(O)cc1)O[C@@H]1O[C@H](CO)[C@@H](O)[C@H](O)[C@H]1O [Compound 1, (R)-4-(4-Hydroxyphenyl)-2-butanol 2-β-D-glucopyranoside]",GI50,"[1]; Homo sapiens, HeLa",16 ± 0.8 µM
same,GI50,"[2]; Homo sapiens, T98G",29 ± 2.5 µM
same,GI50,[3]; [11],10 ± 1.8 µM
same,GI50,[4]; [12],23 ± 4.1 µM
same,GI50,[5]; [13],21 ± 2.3 µM
same,anti-inflammatory actions,[9],anti-inflammatory actions
same,GI50,"[6]; Homo sapiens, Ca-Ski",12 ± 0.7 µM
same,GI50,[7],> 100 µM
same,GI50,[7]; [14],> 83 µM
same,GI50,"[8]; Homo sapiens, C-33-A, 48 h",27 ± 1.4 µM
same,analgesic actions,[10],significant analgesic actions
